{"source": "paper PMC3387161", "about": "“Small Molecules Targeted to a Non-Catalytic “RVxF” Binding Site of Protein Phosphatase-1 Inhibit HIV-1” (PLoS ONE, 2012)", "target": "T1, recombinant PP1α (Oryctolagus cuniculus, UniProt P62139)", "T1 construct": "purchased New England Biolabs, Ipswich, MA", "T1 sequence (P62139 whole entry)": "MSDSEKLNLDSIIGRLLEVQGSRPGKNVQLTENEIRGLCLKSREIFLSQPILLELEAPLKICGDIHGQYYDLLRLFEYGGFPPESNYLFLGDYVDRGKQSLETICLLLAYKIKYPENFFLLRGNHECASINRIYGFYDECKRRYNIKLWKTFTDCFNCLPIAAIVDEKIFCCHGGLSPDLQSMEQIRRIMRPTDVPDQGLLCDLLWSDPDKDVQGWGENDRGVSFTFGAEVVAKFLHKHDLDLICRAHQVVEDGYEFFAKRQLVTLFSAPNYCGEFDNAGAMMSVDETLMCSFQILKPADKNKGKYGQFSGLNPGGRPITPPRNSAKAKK", "test": "Malachite green dephosphorylation of generic KT(pT)IRR peptide by PP1α", "format": "biochemical", "settings": "1H4 300 µM, KT(pT)IRR 3 µM; control 1.4", "experimental": "To determine whether 1H4 has an effect on the enzymatic activity of PP1, we used recombinant PP1α and a generic substrate, phosphorylated KT(pT)IRR peptide which is recognized equally well by PP1 and PP2A [13]. The KT(pT)IRR peptide (3 µM) was efficiently dephosphorylated by PP1α (Fig. 6A, V0 = 1.4 µM·min^−1). […] We further investigated the effect of 1H4 on PP1 enzymatic activity by analyzing the initial velocity versus KT(pT)IRR peptide substrate concentration plots in the absence and presence of 1H4 that were approximated by Michaelis-Menten equation (Fig. 6B) and also visualized in Lineweaver-Burk representation (Fig. 6C).\nFigure 6 1H4 has no effect on PP1 enzymatic activity. […] The amount of released phosphate was quantified by the absorbance and phosphate concentration was recalculated using standards. Initial velocity was calculated by linear regression in Prism. […] The amount of released phosphate was quantified with malachite green. The VMAX and Km were calculated by non-linear regression analysis for Michaelis-Menten equation in Prism. […]\nInhibition data were analyzed using GraphPad Prism 4 software (GraphPad Software, La Jolla, CA). The IC50 values were determined from a sigmoidal dose-response (variable slope) curve using four parameter logistic equation Y = Bottom+(Top-Bottom)/([…]). […]", "data": [{"compound": "COCCNC(=O)COC(=O)c1c2c(nc3ccccc13)/C(=C/c1ccc(O)cc1)CCC2", "note": "[1H4]", "values": [{"measurement": "V0 of KT(pT)IRR peptide dephosphorylation by PP1α in presence of compound", "value": 1.3, "unit": "µM·min^-1"}]}]}
